System: 4T1-luc2 cells
Assay: In vitro validation of released drug efficacy
Type: cell-based
Settings: after 4 hours, free drug dose equals cumulative cisplatin release at 4 hours
From the text: Additional controls include unloaded MPs and untreated cells. […] As shown in these experiments, the local release of high levels of payload may result in a stark increase in efficiency for the treatment of diseased cells.

N.N.[Cl][Pt][Cl] [Cisplatin]
cell death as compared to control: little to no cell death
